We go through three compounds from patent US20260315434A1, “USE OF GUAIACOL SESQUITERPENE LACTONE DERIVATIVES” (NANJING UNIVERSITY OF CHINESE MEDICINE, priority 2023, published 2026).

One data set has as its system CCR2 mRNA. As to the kind of experiment: Inhibition of CCR2 mRNA level in MDSCs. The class given is cell-based. Conditions: Mus musculus, 2 h, read-out: Suppression Rate (inhibition of CCR2 mRNA levels). The procedure: Under sterile conditions, the tibia was removed, both ends of the bone were cut, and bone marrow was repeatedly flushed into a 15 mL centrifuge tube using a 1 mL syringe filled with culture medium. Centrifuge at 1600 rpm for 5 min to collect bone marrow cells. […] Count cells and adjust density to 1×10^6 cells/mL in complete medium. Seed cells uniformly into 6-well plates at 2 mL per well. […] After incubation, collect cells into centrifuge tubes, centrifuge at 1600 rpm for 5 min, wash once with 1×PBS, and add 500 μL RNA extraction reagent to each tube. After centrifugation to obtain the pellet, add 20 μL DEPC-treated water to each tube to dissolve the pellet. Determine RNA concentration and reverse transcribe to cDNA. Add the cDNA, primers, and […] to a 96-well plate. Centrifuge at 4000 rpm for 5 min, then place in a PCR instrument for detection.

The subject of another data set is heart failure. Conditions: human, in vivo; cited from earlier work.
The subject of data set [1] is IgE and inflammatory markers of AD mice. As to the kind of experiment: MC903-induced atopic dermatitis, oral administration: serum IgE and ear mRNA of inflammatory markers. Type of data set: in vivo, mouse. More on the design: scale not given here. As to the method: Except for the Normal group, all other groups underwent AD modeling: 20 μL of MC903 solution (also known as calcipotriol, purchased from Shanghai Yuanye Biotechnology Co., Ltd., used for inducing atopic models) was applied to each mouse's ears once daily for 14 consecutive days to induce the atopic dermatitis model. […] Measure ear thickness changes every 2 days using an electronic caliper before modeling and after treatment initiation.

Data set [2] is described as follows: Safety evaluation, mouse survival rate (30 days oral). Conditions: for survival at 720 h: mouse, in vivo, female, oral. Type of data set: in vivo, C57BL/6 mice. The source says: (§1) The Normal group received an equal volume of solvent (saline).
The nature of data set [3]: Safety evaluation, mouse activity status (30 days oral). Particulars: 500, 1000 mg/kg oral. The class given is in vivo, C57BL/6 mice.
Excerpt: as §1

Data set [4] relates to inflammatory factors Il1b, Il6 and Hscrp in serum. As to the kind of experiment: HFD-induced atherosclerosis, serum Il1b, Il6 and Hscrp. The class given is in vivo, APOE−/− mice. More on the design: Serum Il1b / Serum Il6 / Serum Hscrp: unit not given here. Conditions: for Serum Hscrp / Serum Il1b / Serum Il6: 8 weeks. The procedure:
(§2) Experimental animals: C57BL and APOE^−/− mice, male, 8 weeks old, purchased from GemPharmatech LLC. Production license number: SCXK(Su)2023-0009. […] They were acclimated for 7 days before use in experiments.
(§3) Normal group (C57BL), model group (HFD/APOE^−/−), positive control drug VTX3232 (10 mg/kg) group, compound 103 (0.3, 1, 3, 10 and 30 mg/kg) group, with 6 mice per group. Oral administration was performed continuously for 8 weeks.
(§4) Allow blood to stand at room temperature for 2 hours, then centrifuge at 3000 rpm for 20 minutes. Aspirate the serum, aliquot it, and store at −70° C. for future use. After blood collection, euthanize mice by cervical dislocation. Open the abdominal cavity, remove heart and aorta. […] Store remaining tissues at −80° C. for future use.
Serum Total Il1, Il6 and Hscrp Assay: For each sample, 10 μL of serum was used for […]. Samples were added sequentially strictly according to the kit instructions, incubated at 37° C., and measured for absorbance values using an enzyme-linked immunosorbent assay (ELISA) reader. The concentration levels of each indicator were calculated based on the standard curve.

In another data set the test system is serum TC and TG. As to the kind of experiment: HFD-induced atherosclerosis, serum total cholesterol and triglyceride. Type of data set: in vivo, APOE−/− mice. More on the design: Serum TC / Serum TG: unit not given here. Particulars: for Serum TC / Serum TG: 8 weeks. As to the method: as §2, §3, §4
Serum Total Cholesterol (TC) and Triglyceride (TG) Assay: For each sample, 10 μL of serum was used for […]. Samples were added sequentially strictly according to the kit instructions, incubated at 37° C., and measured for absorbance values using an enzyme-linked immunosorbent assay (ELISA) reader. The concentration levels of each indicator were calculated based on the standard curve.

For data set [5], the system named is serum creatinine and blood urea nitrogen. As to the kind of experiment: Diabetic nephropathy (STZ/HFD), serum creatinine and BUN. Type of data set: in vivo, C57/BL6J mice. Conditions: 8 weeks. The procedure: Experimental animals: C57/BL6J mice, male, 12 weeks old, purchased from GemPharmatech LLC. Production license number: SCXK(Su)2023-0009. […] Animals were acclimated for 7 days before use in experiments.
Administer streptozotocin (STZ, 50 mg/kg) via intraperitoneal injection for 5 consecutive days. After 72 hours, select mice with fasting blood glucose levels exceeding 16.7 mmol/L as model mice. […] Model mice were fed a high-fat diet (HFD) providing 60% of energy from fat for 8 weeks. After 8 weeks, gavage administration commenced.
Specimen Collection: One hour after the last drug administration, enucleate the eyeball to collect blood. Allow blood to stand at room temperature for 2 hours, then centrifuge at 3000 rpm for 20 minutes. Aspirate the serum, aliquot it, and store at −70° C. for future use. After blood collection, euthanize the mice by cervical dislocation. Open the abdominal cavity, remove the kidneys, and dissect away the perirenal fat and capsule. Store the tissue at −70° C. for future use.
Serum Creatinine (Scr) and Blood Urea Nitrogen (BUN) Assay: For each sample, 10 μL of serum was used for creatinine and urea level detection. Samples were added sequentially strictly following the kit instructions. After incubation at 37° C., absorbance values were measured using an enzyme-linked immunosorbent assay (ELISA) reader. The concentration levels of each indicator were calculated based on the standard curve.

With `C=C1C(=O)O[C@@H]2[C@H]3C(C)=CC[C@@]34O[C@@]4(C)CC[C@@H]12` [Arg, Arglabin, reference compound], in the data set on CCR2 mRNA, the inhibition (as a rule, the share of the control response that was lost under treatment) at 1 µM turned out to be 22.3% and the inhibition at 10 µM turned out to be 69.7%. In addition, the cardiac inflammation entry in the data set on heart failure was “inhibited”.
On to `CN(C)C[C@@H]1C(=O)O[C@H]2[C@H]1CC[C@@]1(C)C[C@]13CC[C@@](C)(O)[C@H]23` [Compound 20], for which, in data set [1] (0.1 mg/kg oral), the “I14 mRNA expression, ear” value is reported as 2.77 ± 0.16; the “I113 mRNA expression, ear” value was found to be 2.04 ± 0.20; the “I131 mRNA expression, ear” value amounted to 2.64 ± 0.22; the “TSLP mRNA expression, ear” value was found to be 3.38 ± 0.51. For the same compound, the “Tnf mRNA expression, ear” value in data set [1] (0.1 mg/kg oral) was 4.04 ± 0.50. Also, in data set [1] (1 mg/kg oral), the “I14 mRNA expression, ear” value is 2.65 ± 0.22; the “I113 mRNA expression, ear” value amounted to 1.82 ± 0.21; the “TSLP mRNA expression, ear” value was determined as 2.36 ± 0.32; the “Tnf mRNA expression, ear” value turned out to be 2.63 ± 0.55. For the same compound, in data set [1] (10 mg/kg oral), the “I14 mRNA expression, ear” value worked out at 2.09 ± 0.26; the “I113 mRNA expression, ear” value is listed as 1.66 ± 0.30; the “I131 mRNA expression, ear” value came to 1.68 ± 0.13; the “TSLP mRNA expression, ear” value was 1.33 ± 0.13. The “Tnf mRNA expression, ear” value in data set [1] (10 mg/kg oral) is 1.22 ± 0.18. Moreover, in data set [2] (500 and 1000 mg/kg oral), the survival rate entry is “no significant effect”. Besides, the survival at 720 h in data set [2] (500 mg/kg) came out at 100%. The same compound gave a survival at 720 h in data set [2] (1000 mg/kg) of 100%. Besides, in data set [3], the “activity status after each administration” value was “relatively reduced activity and lethargy”; the “time to recovery to normal activity” value lay within 1 to 2 h. For the same compound, the “coat luster, behavioral activity, or mental state vs. Normal group” value in data set [3] (30 days) was “no significant differences”.
`CC1=C2CC[C@@](C)(OC(=O)N3CCCC3)[C@@H]2[C@H]2OC(=O)[C@@H](CN3CCCC3)[C@@H]2CC1` [Compound 103]: the “Serum Hscrp” value was determined as 9.67 ± 1.25 in data set [4] (0.3 mg/kg, oral); 7.25 ± 0.77 in data set [4] (1 mg/kg, oral); 6.67 ± 0.46 in data set [4] (3 mg/kg, oral); 5.80 ± 0.41 in data set [4] (10 mg/kg, oral); 4.88 ± 0.63 in data set [4] (30 mg/kg oral). Further, the “Serum Il1b” value in data set [4] (0.3 mg/kg, oral) is recorded as 277.35 ± 176.70; in data set [4] (1 mg/kg, oral) it was 255.38 ± 185.47; in data set [4] (3 mg/kg, oral), 173.42 ± 132.43; in data set [4] (10 mg/kg, oral), 77.91 ± 41.08; in data set [4] (30 mg/kg oral), 62.93 ± 23.79. The “Serum Il6” value in data set [4] (0.3 mg/kg, oral) came out at 95.42 ± 26.76; in data set [4] (1 mg/kg, oral), 90.32 ± 8.01; in data set [4] (3 mg/kg, oral) it was 82.19 ± 4.83; in data set [4] (10 mg/kg, oral), 50.08 ± 9.76; in data set [4] (30 mg/kg oral) it was 34.82 ± 20.80. In data set [4] (0.3, 1, 3, 10, 30 mg/kg oral), the “serum Il1b, Il6 and Hscrp levels compared with the model group” value was “markedly lower”. The “Serum TC” value with serum TC and TG (0.3 mg/kg, oral) came to 18.86 ± 1.44; in the data set with serum TC and TG (1 mg/kg, oral), 18.71 ± 1.45; in the data set on serum TC and TG (3 mg/kg, oral), 17.44 ± 1.83; in the data set with serum TC and TG (10 mg/kg, oral), 17.75 ± 1.62; in the data set with serum TC and TG (30 mg/kg oral) it was 17.65 ± 1.35. In addition, the “Serum TG” value in the data set on serum TC and TG (0.3 mg/kg, oral) is 2.69 ± 0.86; in the data set with serum TC and TG (1 mg/kg, oral) it was 2.87 ± 0.42; in the data set on serum TC and TG (3 mg/kg, oral), 2.56 ± 0.93; with serum TC and TG (10 mg/kg, oral), 3.01 ± 0.89; in the data set with serum TC and TG (30 mg/kg oral), 2.91 ± 0.59. Also, the “serum TC and TG levels compared with the model group” value in the data set with serum TC and TG (0.3, 1, 3, 10, 30 mg/kg oral) is “no significant changes”. For the same compound, the BUN in data set [5] (1 mg/kg gavage) was determined as 54.34 ± 10.67; in data set [5] (10 mg/kg gavage), 38.10 ± 2.88. Also, the figures for the “Scr (serum creatinine)” value in data set [5] (1 mg/kg gavage) and in data set [5] (10 mg/kg gavage) were 23.48 ± 6.73 and 14.90 ± 8.06, respectively.
